This passage reports IC50 and inhibition results from paper PMC6916368, “Cell‐Based Optimization of Covalent Reversible Ketoamide Inhibitors Bridging the Unprimed to the Primed Site of the Proteasome β5 Subunit” (Chemmedchem, 2019).

Like-named read-outs stand apart in the source and are kept apart here. Peptide text beside a SMILES is read from it. * marks the point of attachment. Cbz = O=C(OCc1ccccc1)*; OtBu = CC(C)(C)O*

In one experiment the test system is MV4‐11 cells. The experiment is described as follows: Cell viability endpoint assay (Celltiter Blue, 72 h). It is filed as cell-based. Particulars: Homo sapiens, MV4-11, mean±SD from two independent experiments. As for the experimental part:
Cell lines. MV4‐11 (ACC 102), Jurkat (ACC 282) and THP‐1 (ACC 16) cells were obtained from DSMZ and maintained at 37 °C and 5 % CO2 at densities between 0.2–1×10^6 cells per mL in RMPI‐1640 medium supplemented with 10 % FBS, L‐glutamine (2 mM) and penicillin/streptomycin.
Cell viability endpoint assay. For the determination of cytotoxicity of proteasome inhibitors 50.000 cells per well were plated in 90 μl RPMI‐1640 medium supplemented with 0.1 % FBS and incubated overnight at 37 °C and 5 % CO2. Inhibitors were serially diluted in RPMI‐1640 medium as 10‐fold stocks and added to cells giving the final concentration (1 nM to 10 μM, Figure S2–S4) and incubated for 72 h at 37 °C and 5 % CO2. Cell viability was determined using the Celltiter Blue assay (Promega) by adding 20 μl of reagent, incubation for 120 minutes at 37 °C and 5 % CO2 and fluorescent read‐out using a Tecan M1000 microplate reader. Dose‐response curves were fitted to the equation “Y=Bottom+(Top‐Bottom)/(1+10^(X−L°^gIC50))” using GraphPad Prism 7.02. IC50 values are determined from technical triplicates as mean value of two independent experiments. Standard deviations (Table S1) as well as dose response curves (SI chapter 2b) are given in the supplementary information.
On the technique in general: Resazurin is reduced to fluorescent resorufin, in cell work by metabolically active cells.

The target of experiment [1] is T1, β5c subunit of isolated human 20S proteasome (Homo sapiens, UniProt P28074).
T1 construct: purchased Enzo Life Sciences
The experiment is described as follows: Proteasome inhibition assay (20 S Proteasome Assay Kit, Suc‐LLVY‐AMC). The settings on record: for inhibition at 1 µM: read-out: Inhibition cCP β5; for inhibition at 0.1 µM: read-out: Rel. Inhibition β5c. It is filed as biochemical. On the procedure: (§1) Proteasome inhibition assay. […] The 20 S Proteasome Assay Kit for Drug Discovery was used according to the supplier's protocol using Suc‐LLVY‐AMC (β5), Bz‐VGR‐AMC (β2) or Z‐LLE‐AMC (β1) as substrates (Enzo Life Sciences). Single point measurements of residual activity of proteasome activity were performed at a final concentration of 100 nM (n=3, β5c, β5i) or 1 μM (n=1, β1c, β2c, β5c, β5i, SI chapter 2a, Table S1). […] Inhibitors were prepared in 2‐fold concentration (cfinal=100 nM) and added to proteasomes (mfinal=200 ng/well). After 30 min incubation, substrate was added (cfinal=100 μM), incubated for 60 minutes and fluorescence was read using a Tecan M1000 microplate reader. […] IC50 values were determined from technical duplicates as mean value of three independent experiments.

The target of experiment [2] is T2, β2c subunit of isolated human 20S proteasome (Homo sapiens, UniProt Q99436).
T2 construct: purchased Enzo Life Sciences
The experiment is described as follows: Proteasome inhibition assay (20 S Proteasome Assay Kit, Bz‐VGR‐AMC). It is filed as biochemical. The settings on record: c = 1 µM, n=1; read-out: Inhibition cCP β2. On the procedure: Proteasome inhibition assay. Bortezomib (Selleckchem) and carfilzomib (MedChemExpress) were purchased and used without further purification. The 20 S Proteasome Assay Kit for Drug Discovery was used according to the supplier's protocol using Suc‐LLVY‐AMC (β5), Bz‐VGR‐AMC (β2) or Z‐LLE‐AMC (β1) as substrates (Enzo Life Sciences). Single point measurements of residual activity of proteasome activity were performed at a final concentration of 100 nM (n=3, β5c, β5i) or 1 μM (n=1, β1c, β2c, β5c, β5i, SI chapter 2a, Table S1). […] Inhibitors were prepared in 2‐fold concentration (cfinal=100 nM) and added to proteasomes (mfinal=200 ng/well). After 30 min incubation, substrate was added (cfinal=100 μM), incubated for 60 minutes and fluorescence was read using a Tecan M1000 microplate reader. Dose‐response curves were fitted to the equation Y=100/(1+10^((L°^gIC50−X)*HillSl°^pe)) using GraphPad Prism 7.02. IC50 values were determined from technical duplicates as mean value of three independent experiments.

Experiment [3] deals with T3, β1c subunit of isolated human 20S proteasome (Homo sapiens, UniProt P28072).
T3 construct: purchased Enzo Life Sciences
Nature of the experiment: Proteasome inhibition assay (20 S Proteasome Assay Kit, Z‐LLE‐AMC). The class given is biochemical. Particulars: read-out: Inhibition cCP β1. As for the experimental part: as §1

The target of experiment [4] is T4, β5i subunit of isolated human 20S proteasome (Homo sapiens, UniProt P28062).
T4 construct: purchased Enzo Life Sciences
Nature of the experiment: Proteasome inhibition assay (20 S Proteasome Assay Kit, Suc‐LLVY‐AMC). The class given is biochemical. The settings on record: for inhibition at 1 µM: c = 1 µM, n=1, read-out: Inhibition iCP β5; for inhibition at 0.1 µM: c=100 nM, read-out: Rel. Inhibition β5i. On the procedure: as §1

As to `CC(C)C[C@@H](C=O)NC(=O)[C@H](CC(C)C)NC(=O)[C@H](CC(C)C)NC(=O)OCc1ccccc1` [Compound 4, MG132, reference compound] (Cbz-Leu-Leu-Leu-aldehyde), the half-inhibitory concentration (IC50) in the experiment with MV4‐11 cells turned out to be 131 ± 12 nM. Further, the inhibition at 1 µM in experiment [1] is 82%; in experiment [2], 21%; in experiment [3] it was 27%. Also, the inhibition at 0.1 µM in experiment [1] is 43%.
Turning to `CC(C)C[C@@H](C=O)NC(=O)[C@H](CC(=O)OC(C)(C)C)NC(=O)[C@H](CC(C)C)NC(=O)OCc1ccccc1` [Compound 5, BSc2118, reference compound] (Cbz-Leu-Asp(OtBu)-Leu-aldehyde), half-maximal inhibition in the experiment on MV4‐11 cells (IC50) was put at 123 ± 12 nM. For the same compound, the inhibition at 1 µM was 90% in experiment [1] (c = 1 µM, n=1); 72% in experiment [4]; 4% in experiment [2]; 16% in experiment [3] (c = 1 µM, n=1). Also, the inhibition at 0.1 µM in experiment [1] (c=100 nM) was 54%; in experiment [4], 11%.
Take `CC(C)C[C@H](NC(=O)OCc1ccccc1)C(=O)N[C@@H](CC(C)C)C(=O)N[C@@H](CC(C)C)C(=O)C(=O)Nc1ccccc1Oc1ccccc1` [Compound 8, Benzyl‐((S)‐4‐methyl‐1‐(((S)‐4‐methyl‐1‐(((S)‐5‐methyl‐1,2‐dioxo‐1‐((2‐phenoxyphenyl)‐amino)hexan‐3‐yl)amino)‐1‐oxopentan‐2‐yl)amino)‐1‐oxopentan‐2‐yl)carbamate]: the midpoint of inhibition in the experiment on MV4‐11 cells, the IC50, lay at 203 ± 22 nM. Further, the inhibition at 1 µM in experiment [1] (c = 1 µM, n=1) is 32%; in experiment [4], 7%; in experiment [2], -4%; in experiment [3] (c = 1 µM, n=1) it was -7%. In addition, the inhibition at 0.1 µM in experiment [1] (c=100 nM) was determined as 12%; in experiment [4] it was 8%.
Compound `CC(C)C[C@H](NC(=O)OCc1ccccc1)C(=O)N[C@@H](CC(C)C)C(=O)N[C@@H](CC(C)C)C(=O)C(=O)Nc1ccc(Oc2ccccc2)cc1` [Compound 10, Benzyl‐((S)‐4‐methyl‐1‐(((S)‐4‐methyl‐1‐(((S)‐5‐methyl‐1,2‐dioxo‐1‐((4‐phenoxyphenyl)‐amino)hexan‐3‐yl)amino)‐1‐oxopentan‐2‐yl)amino)‐1‐oxopentan‐2‐yl)carbamate] came in with an IC50 in the experiment with MV4‐11 cells of 45 ± 3 nM. The inhibition at 1 µM was 63% in experiment [1] (c = 1 µM, n=1); 23% in experiment [4]; 2% in experiment [2]; -3% in experiment [3] (c = 1 µM, n=1). Moreover, the inhibition at 0.1 µM in experiment [1] (c=100 nM) came out at 25%; in experiment [4], 5%.
`Cc1cc(C)c(Oc2ccccc2)cc1NC(=O)C(=O)[C@H](CC(C)C)NC(=O)[C@H](CC(C)C)NC(=O)[C@H](CC(C)C)NC(=O)OCc1ccccc1` [Compound 11, Benzyl((S)‐1‐(((S)‐1‐(((S)‐1‐((2,4‐dimethyl‐5‐phenoxyphenyl)amino)‐5‐methyl‐1,2‐dioxo‐hexan‐3‐yl)amino)‐4‐methyl‐1‐oxopentan‐2‐yl)amino)‐4‐methyl‐1‐oxopentan‐2‐yl)carbama‐te] registered an IC50 in the experiment on MV4‐11 cells of 19 ± 1 nM. The inhibition at 1 µM is 59% in experiment [1] (c = 1 µM, n=1); 10% in experiment [4]; 10% in experiment [2]; -10% in experiment [3] (c = 1 µM, n=1). In addition, the inhibition at 0.1 µM in experiment [1] (c=100 nM) was determined as 46%; in experiment [4] it was 12%.
In turn, `Cc1ccc(NC(=O)C(=O)[C@H](CC(C)C)NC(=O)[C@H](CC(C)C)NC(=O)[C@H](CC(C)C)NC(=O)OCc2ccccc2)c(C)c1Oc1ccccc1` [Compound 12, Benzyl((S)‐1‐(((S)‐1‐(((S)‐1‐((2,4‐dimethyl‐3‐phenoxyphenyl)amino)‐5‐methyl‐1,2‐dioxo‐hexan‐3‐yl)amino)‐4‐methyl‐1‐oxopentan‐2‐yl)amino)‐4‐methyl‐1‐oxopentan‐2‐yl)carbama‐te] registered a 50% inhibitory concentration (IC50) with MV4‐11 cells of 26 ± 8 nM. In addition, the inhibition at 1 µM in experiment [1] (c = 1 µM, n=1) was 53%; in experiment [4] it was 16%; in experiment [2], 4%; in experiment [3] (c = 1 µM, n=1) it was -33%. The figures for the inhibition at 0.1 µM in experiment [1] (c=100 nM) and in experiment [4] were 20% and 9%, respectively.

In general, IC50 refers to the midpoint of a concentration-inhibition curve. Read a low IC50 as inhibition by little substance. A word on the inhibition: it is the change of the read-out against control, counted positive when it falls.
